Results taken from article PMC12557365 (Journal of Medicinal Chemistry, 2025).
Where “and” joins values, the source holds several entries; their conditions need not be identical. Identical values can stand only once. Entries after “also recorded” stand apart in the source; their conditions may differ. Like-named read-outs stand apart in the source and are kept apart here.

How the values were obtained:
SARS-CoV-2 = assay: microbe, parasite or virus in culture; type: cell-based; conditions: Severe acute respiratory syndrome coronavirus 2, A549
HCoV-OC43 = assay: microbe, parasite or virus in culture; type: cell-based; conditions: Betacoronavirus 1, OC43, MRC5, read-out: EC50 HCoV-OC43
[1] = tested on: SARS-CoV-2 Omicron strains; assay: microbe, parasite or virus in culture; type: cell-based; conditions: Severe acute respiratory syndrome coronavirus 2, Epithelial cell
[2] = LLC-PK1; cited from earlier work
[3] = human, microsomes, 0.5 h; cited from earlier work
P-gp [4] = target: T1, P-gp (Homo sapiens, UniProt P08183); conditions: LLC-PK1; cited from earlier work
[5] = tested on: SARS-CoV-2 hCoV-19/Japan/TY/WK-521 strain; conditions: read-out: HEK 293T-AT EC50; cited from earlier work
SARS-CoV [6] = conditions: cited from earlier work
P-gp [7] = target: T1, P-gp; conditions: LLC-PK1
MERS-CoV [8] = conditions: cited from earlier work
[9] = rat, microsomes, 0.5 h; cited from earlier work
[10] = tested on: SARS-CoV-2 Gamma strain (hCoV-19/Japan/TY7-501/2021); assay: microbe, parasite or virus in culture; type: cell-based
HCoV-229E [11] = conditions: cited from earlier work
Human Caspase 2 = Human Caspase 2 (Homo sapiens, UniProt P42575); assay: biochemical
in vitro [12] = conditions: male, rat, microsomes
MERS-CoV [13] = assay: microbe, parasite or virus in culture; type: cell-based; conditions: Middle East respiratory syndrome-related coronavirus, VeroE6/TMPRSS2, read-out: EC50 MERS-CoV
in vitro [14] = conditions: African green monkey
SARS-CoV [15] = assay: microbe, parasite or virus in culture; type: cell-based; conditions: Severe acute respiratory syndrome coronavirus, VeroE6/TMPRSS2, read-out: EC50 SARS-CoV
in vivo [16] = conditions: male, Sprague-Dawley, rat
[17] = tested on: SARS-CoV-2 hCoV-19/Japan/TY/WK-521 strain; assay: microbe, parasite or virus in culture; type: cell-based; conditions: Severe acute respiratory syndrome coronavirus 2, HEK-293T, read-out: HEK 293T-AT EC50
in vitro [18] = conditions: pig, LLC-PK1
HCoV-229E [19] = assay: microbe, parasite or virus in culture; type: cell-based; conditions: read-out: EC50 HCoV-229E
in vitro [20] = conditions: both, human, microsomes
Human Thrombin = Human Thrombin (Homo sapiens, UniProt P00734); assay: biochemical
[21] = pig
Human Cathepsin B/D/G/L = type: biochemical
[22] = in vivo
[23] = tested on: SARS-CoV-2 Gamma strain (hCoV-19/Japan/TY7-501/2021); set-up: species or system BALB/cAJcl mice; conditions: mouse, in vivo
in vivo [24] = conditions: male, beagle, dog, iv, 0.1 mg/kg
in vivo [25] = conditions: female, cynomolgus monkey, iv, 0.1 mg/kg
Human Chymotrypsin = type: biochemical
HIV-1 Protease = HIV-1 Protease (Human immunodeficiency virus type 1 group M subtype B, UniProt P04585); assay: biochemical
P-gp [26] = target: T1, P-gp; assay: in vitro; conditions: LLC-PK1
[27] = Severe acute respiratory syndrome coronavirus 2, VeroE6/TMPRSS2, read-out: EC90, 0% serum
[28] = Severe acute respiratory syndrome coronavirus 2, VeroE6/TMPRSS2, read-out: EC90, 12.5% serum
[29] = Severe acute respiratory syndrome coronavirus 2, VeroE6/TMPRSS2, read-out: EC90, 25% serum

T1 sequence (P08183 whole entry): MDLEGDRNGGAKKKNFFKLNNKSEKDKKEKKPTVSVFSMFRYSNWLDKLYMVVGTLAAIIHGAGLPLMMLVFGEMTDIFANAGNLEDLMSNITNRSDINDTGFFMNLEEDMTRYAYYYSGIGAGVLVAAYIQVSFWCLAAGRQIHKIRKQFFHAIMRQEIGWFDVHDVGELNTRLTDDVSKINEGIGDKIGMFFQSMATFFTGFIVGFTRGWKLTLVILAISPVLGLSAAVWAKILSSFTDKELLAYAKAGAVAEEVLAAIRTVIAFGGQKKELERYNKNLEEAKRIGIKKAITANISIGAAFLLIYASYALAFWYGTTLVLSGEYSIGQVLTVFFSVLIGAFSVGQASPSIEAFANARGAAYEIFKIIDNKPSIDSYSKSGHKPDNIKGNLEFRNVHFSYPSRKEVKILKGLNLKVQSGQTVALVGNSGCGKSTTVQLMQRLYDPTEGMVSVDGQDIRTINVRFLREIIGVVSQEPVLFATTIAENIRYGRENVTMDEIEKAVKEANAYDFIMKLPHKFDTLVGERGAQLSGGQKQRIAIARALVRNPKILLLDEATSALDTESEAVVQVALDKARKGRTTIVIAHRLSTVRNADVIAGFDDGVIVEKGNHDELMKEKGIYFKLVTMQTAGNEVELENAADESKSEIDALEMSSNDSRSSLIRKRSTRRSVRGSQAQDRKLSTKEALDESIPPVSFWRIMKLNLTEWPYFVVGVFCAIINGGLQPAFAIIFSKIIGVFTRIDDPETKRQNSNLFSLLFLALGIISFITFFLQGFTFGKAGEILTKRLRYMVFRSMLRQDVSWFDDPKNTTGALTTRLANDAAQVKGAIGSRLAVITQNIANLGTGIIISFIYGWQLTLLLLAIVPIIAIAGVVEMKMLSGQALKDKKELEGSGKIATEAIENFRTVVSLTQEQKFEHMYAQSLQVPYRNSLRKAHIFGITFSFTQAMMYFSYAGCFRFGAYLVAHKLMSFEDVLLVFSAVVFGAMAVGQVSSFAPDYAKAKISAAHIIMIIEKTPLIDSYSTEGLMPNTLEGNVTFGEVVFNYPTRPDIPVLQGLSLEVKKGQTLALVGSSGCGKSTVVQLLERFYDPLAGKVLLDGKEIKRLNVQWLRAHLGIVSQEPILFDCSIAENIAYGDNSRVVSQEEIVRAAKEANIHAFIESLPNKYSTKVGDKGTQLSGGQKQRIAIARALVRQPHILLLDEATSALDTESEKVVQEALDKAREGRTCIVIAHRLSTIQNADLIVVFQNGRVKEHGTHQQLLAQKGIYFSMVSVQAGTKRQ
Human Caspase 2, sequence (P42575 170-333): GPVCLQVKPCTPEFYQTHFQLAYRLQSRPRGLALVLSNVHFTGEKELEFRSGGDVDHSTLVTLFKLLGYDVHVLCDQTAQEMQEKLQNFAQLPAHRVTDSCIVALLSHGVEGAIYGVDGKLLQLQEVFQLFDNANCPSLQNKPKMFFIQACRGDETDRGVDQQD
Human Caspase 2, sequence (P42575 348-452): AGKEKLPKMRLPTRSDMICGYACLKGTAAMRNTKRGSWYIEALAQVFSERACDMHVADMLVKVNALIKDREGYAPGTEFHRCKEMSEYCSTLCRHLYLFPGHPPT

Structure (SMILES): Cn1cnc(Cn2c(=O)[nH]/c(=N\c3cc4cn(C)nc4cc3Cl)n(Cc3cc(F)c(F)cc3F)c2=O)n1 [ensitrelvir]
- EC50 (SARS-CoV-2): 73.1 ± 16.4 nM
- EC50 (HCoV-OC43): 142 ± 9 nM
- EC90 [1]: 60.1 ± 32.8 nM
- Papp Apical to Basolateral [2]: 10.3 ± 0.3 ×10-6 cm/sec
- Papp Basolateral to Apical [2]: 11.6 ± 0.3 ×10-6 cm/sec
- HLM % remained [3]: 96/88^25%
- Papp Apical to Basolateral (P-gp [4]): 2.03 ± 0.07 ×10-6 cm/sec
- Papp Basolateral to Apical (P-gp [4]): 30.2 ± 1.8 ×10-6 cm/sec
- EC50 [5]: 27 nM
- EC50 (SARS-CoV [6]): 210 nM
- P-gp substrate assessment (P-gp [7]): P-gp substrates
- EC50 (MERS-CoV [8]): 1400 nM
- RLM % remained [9]: 96/88^25%
- EC90 [10, 27]: 118 ± 52 nM
- EC90 [10, 28]: 367 ± 69 nM
- EC90 [10, 29]: 608 ± 75 nM
- EC90 ([10]; Severe acute respiratory syndrome coronavirus 2, VeroE6/TMPRSS2, read-out: EC90, 50% serum): 838 ± 191 nM
- EC90 ([10]; Severe acute respiratory syndrome coronavirus 2, VeroE6/TMPRSS2, read-out: EC90, 100% (Extrapolated)): 1590 ± 330 nM
- EC90 ([10]; read-out: EC90, 12.5% serum): 218 ± 60 nM
- EC90 ([10]; read-out: EC90, 25% serum): 462 ± 129 nM
- EC90 ([10]; read-out: EC90, 50% serum): 1560 ± 290 nM
- EC90 ([10]; read-out: EC90, 100% (Extrapolated)): 2920 ± 550 nM
- EC50 (HCoV-229E [11]): 5.5 µM

Structure (SMILES): N#CCn1c(N2CC3(C2)CC(F)(F)C3)c(-c2ccc(F)c(Cl)c2)c(=O)n(-c2cncc(Cl)c2)c1=O [Compound 17, [5-(3-Chloro-4-fluorophenyl)-3-(5-chloropyridin-3-yl)-6-(6,6-difluoro-2-azaspiro[3.3]-heptan-2-yl)-2,4-dioxo-3,4-dihydropyrimidin-1(2H)-yl]-acetonitrile]
- EC50 (SARS-CoV-2): 2.21 nM
- IC50 (Human Caspase 2): > 10 µM
- remaining at 0.5 h (in vitro [12]): 92%
- EC50 (MERS-CoV [13]): 57.3 nM
- EC50 (HCoV-OC43): 92 nM
- CC50 (in vitro [14]): > 100 µM
- EC50 (SARS-CoV [15]): 6.61 nM
- clearance (in vivo [16]; iv): 6.79 mL/min/kg
- half-life (in vivo [16]; iv): 488 min
- bioavailability (in vivo [16]; po, 1 umol/kg): 100%
- EC50 [17]: 2.48 nM
- EC90 [1]: 2.41 ± 1.61 nM
- EC90 ([1]; in Mus musculus, read-out: protein-adjusted EC90 (PA-EC90)): 27 nM to 28.1 nM and 0.0141 µg/mL to 0.0147 µg/mL
- Papp A→B (in vitro [18]): 6.17 ×10⁻⁶ cm/s
- Papp B→A (in vitro [18]): 7.36 ×10⁻⁶ cm/s
- EC50 (HCoV-229E [19]): 3.57 ± 0.51 µM
- remaining at 0.5 h (in vitro [20]): 99%
- IC50 (Human Thrombin): > 10 µM
- LLC-PK1 P app [21]: 6.17 × 10^–6 cm/s
- P-gp substrate assessment (P-gp [7]): P-gp substrates
- IC50 (Human Cathepsin B/D/G/L): > 10 µM
- adverse effects [22]: No adverse effects were observed
- teratogenicity [22]: No teratogenicity was observed
- lung virus titers [23]: reduced lung virus titers in a dose-dependent manner; also recorded: Virus titer reduction was observed; also recorded: appeared to reach maximum efficacy
- clearance (in vivo [24]): 2.52 mL/min/kg
- half-life (in vivo [24]): 1490 min
- clearance (in vivo [25]): 11.4 mL/min/kg
- half-life (in vivo [25]): 421 min
- IC50 (Human Chymotrypsin): > 10 µM
- EC90 [10, 27]: 1.66 ± 0.14 nM
- EC90 [10, 28]: 1.98 ± 0.08 nM
- EC90 [10, 29]: 3.42 ± 0.55 nM
- EC90 ([10]; read-out: EC90, 12.5% serum): 2.43 ± 0.32 nM
- EC90 ([10]; read-out: EC90, 25% serum): 2.76 ± 0.66 nM
- IC50 (HIV-1 Protease): > 10 µM
- Papp A→B (P-gp [26]): 2.48 ×10⁻⁶ cm/s
- Papp B→A (P-gp [26]): 22.4 ×10⁻⁶ cm/s
